Test results: US11643431B2, “Uses of hyaluronan conjugate” (priority 2020, dated 2023)

What was measured:
[1] = system: SARS-CoV-2 pseudovirus; test: In vivo SARS-CoV-2 pseudovirus infection, lung luminescence (IVIS); design: species or system BALB/c mice; conditions: vs positive control
[2] = prior studies; cited from earlier work
[3] = system: IL-6, KC/GRO and MCP-1; test: Serum IL-6 and IL-6 downstream chemokines in CT26 tumor-bearing mice; type: in vivo; conditions: nimesulide alone 1.5 mg/kg and 5.3 mg/kg i.v.
Protocol: When the tumor volumes reached 25-50 mm^3, tumor-bearing mice were randomized to six groups: vehicle control, 50 mg/kg NIM-HA (eq. 1.3 mg/kg Nim) conjugate, 100 mg/kg (eq. 2.6 mg/kg Nim) NIM-HA conjugate, 200 mg/kg (eq. 5.2 mg/kg Nim) NIM-HA conjugate, 1.5 mg/kg nimesulide, and 5.3 mg/kg nimesulide. The vehicle or test samples were i.v. injected two times weekly for two weeks.
The serum level of IL-6 and two IL-6 downstream chemokines (KC/GRO and MCP-1) were measured following conventional protocols.

[4] = system: SARS-CoV-2 pseudotyped lentivirus; type: cell-based
[5] = system: IL-6 level in LPS-induced A549 cells; test: IL-6 level in LPS-induced A549 cells (ELISA); type: cell-based, human; conditions: 0.5 μg/mL LPS, 4.94-400 μM, 48 hours, vs LPS alone, p<0.05
Protocol: In this example, A549 cells (human alveolar basal epithelial cells) were used to assess the effect of the present NIM-HA conjugate (CA102N) on the IL-6 level.
A549 cells in 600 μL F-12K medium were seeded in a density of 5×10^4 per 24-well and incubated overnight. The next day, the medium was discarded and replaced with a fresh medium containing 1 μg/mL LPS with 0, 0.1, 0.2, 0.4 and 0.8 mg/mL CA102N (eq. 0, 5.9, 11.8, 23.6 and 47.2 μM) conjugate or 5 μg/mL (12.7 μM) dexamethasone, which was then incubated for 48 hours. Then, 300 μL of supernatants were collected, and the IL-6 level was measured using a Human IL-6 Uncoated ELISA kit (Catalogue No. 88-7066; Invitrogen). Cells not treated with LPS are used as the negative control, whereas cells treated with LPS but not CA102N are used as the positive control. The results were summarized in FIG. 3, and the data were expressed as mean±standard deviation (SD).
A549 cells in 600 μL F-12K medium were seeded in a density of 2×10^4 per 24-well and incubated overnight. […] Then, 300 μL of supernatants were collected, and the IL-6 level was measured using Human IL-6 Uncoated ELISA kit (Catalogue No. 88-7066; Invitrogen). […] The results were summarized in FIG. 4, and the data were expressed as mean±standard deviation (SD).

With hyaluronic acid [HA] the “SARS-CoV-2 pseudovirus infection (lung luminescence)” value ([1]; HA group (dose not given)) was “no significant difference between the HA group and the positive control”.
For `CS(=O)(=O)Nc1ccc([N+](=O)[O-])cc1Oc1ccccc1` [nimesulide, N-(4-nitro-2-phenoxyphenyl)methanesulfonamide], the hepatotoxicity [2] is listed as “significantly associated with hepatotoxicity”, the IL-6 blockade [3] is listed as “cannot elicit any effect on IL-6 blockade” and the “inhibition of SARS-CoV-2 pseudovirus entry (in words)” value [4] is listed as “cannot inhibit SARS-CoV-2 pseudovirus infection by blocking the viral entry”. For the same molecule, the “SARS-CoV-2 pseudovirus infection (lung luminescence)” value ([1]; 4 mg/kg nimesulide i.v. 1 hour before intra-tracheal pseudovirus, 24 hours, p<0.05) was “inhibit significantly compared to the positive control”.
In the case of `CC(=O)NC1C(O)OC(CO)C(O)C1OC1OC(C(=O)Nc2ccc(NS(C)(=O)=O)c(Oc3ccccc3)c2)C(O)C(O)C1O` (stereo not drawn) [NIM-HA disaccharide conjugate], the IL-6 level [5] is reported as “substantially decrease the IL-6 level in LPS-treated cells in a dose-dependent manner”.
